Test results from US10914725B2, “Culture medium additive, culture medium composition, and method for culturing cells or tissue using same” (NISSAN CHEMICAL INDUSTRIES, LTD., priority 2015, dated 2021).

How the values were obtained:
Type in all cases: cell-based
[1] = test system: adenocarcinomic human alveolar basal epithelial cell line A549; test: High content analysis of anticancer agents by cell image analysis (Experimental Example 8); details: for average cell number per sphere / average dead cell number in sphere / average sphere number per 20 mm^2 / projected area: 0.03 (w/v)% low-molecular agar medium, 7 days with agent;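 as to projected area: Projected area in square micrometres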
Procedure: Adenocarcinomic human alveolar basal epithelial cell line A549 (manufactured by DS PHARMA BIOMEDICAL CO., LTD.) was suspended in the above-mentioned medium composition containing low-molecular agar at 11,000 cells/mL. […] The plate was stood in a CO2 incubator (37° C., 5% CO2) overnight. The next day, paclitaxel (manufactured by Wako Pure Chemical Industries, Ltd.) and trametinib (manufactured by SANTA CRUZ) were further added by 10 μl per 1 well at a final concentration of 0.001 μM, 0.01 μM and 0.1 μM, respectively, mitomycin C (manufactured by Wako Pure Chemical Industries, Ltd.) at a final concentration of 0.005 μM, 0.05 μM and 0.5 μM, and MK2206 (manufactured by SANTA CRUZ) at a final concentration of 0.001 μM, 0.01 μM, 0.1 μM and 1 μM. Successively, the plate was further cultured in a standing state in a CO2 incubator (37° C., 5% CO2) for 7 days.
Successively, a solution of 20 μg/mL Propidium Iodide (manufactured by BIOMOL) in DMEM (phenol red, L-glutamine free) (manufactured by Wako Pure Chemical Industries, Ltd.) was prepared and added at 10 μL per 1 well, and the culture medium was suspended. The plate was centrifuged at 1,500 rpm for 1 min, and high content analysis was performed by cell image analysis using a cell imaging apparatus (“ArrayScan VTI HCS Reader”, manufactured by Thermo Fisher Scientific). At that time, observation was performed with 20 fields of view per well using a ×10 objective lens, cell outline and cell nucleus were detected from Hoechst33342 fluorescence image, and dead cells were detected from propidium iodide fluorescence image. In addition, 50% inhibitory concentration (nM) of each anticancer agent by high content analysis was calculated from the number of spheres constituted of not less than 5 cells. In this case, the value without addition of the anticancer agent was taken as 0% sphere formation inhibitory rate.

[2] = test system: adenocarcinomic human alveolar basal epithelial cell line A549; test: CellTiter-Glo cell survival assay of paclitaxel (Experimental Example 5); details: for IC50: Homo sapiens, A549, cell survival assay by fluorescence, read-out: paclitaxel 50% inhibitory concentration; for relative cell number (no anticancer agent = 1): 10 days
Procedure: As a negative control, a medium composition containing 10 (v/v) % FBS alone in DMEM (manufactured by Wako Pure Chemical Industries, Ltd.) was prepared. As a comparison control, in the same manner as in Experimental Example 3, a medium composition containing 10 (v/v) % FBS and 0.015 (w/v) % of deacylated gellan gum in DMEM (manufactured by Wako Pure Chemical Industries, Ltd.) was prepared. Paclitaxel was also added at the above-mentioned concentration to the negative control and comparison control medium compositions, A549 cells were suspended therein and the suspensions were dispensed. Successively, the plate was cultured in a standing state in a CO2 incubator (37° C., 5% CO2) for 10 days.
CellTiter-Glo Luminescent Cell Viability Assay (manufactured by Promega) (100 μL) was added to each cell culture medium of the negative control and comparison control, the mixture was stood for 10 min at room temperature, and the amount of luminescence was measured by a microplate reader (“FlexStation 3”, manufactured by Molecular Devices) and according to the protocol recommended by Promega. The amount of luminescence of the medium alone was subtracted, whereby the number of viable cells was measured. In addition, 50% inhibitory concentration (nM) of paclitaxel by the amount of luminescence was calculated with the number of viable cells when paclitaxel was not added as 0% inhibition rate.

[3] = test system: adenocarcinomic human alveolar basal epithelial cell line A549; test: CellTiter-Glo cell survival assay of anticancer agents (Experimental Example 8); details: for IC50: Homo sapiens, A549, cell survival assay by luminescence, read-out: 50% inhibitory concentration
Procedure: Adenocarcinomic human alveolar basal epithelial cell line A549 (manufactured by DS PHARMA BIOMEDICAL CO., LTD.) was suspended in the above-mentioned medium composition containing low-molecular agar at 11,000 cells/mL. The above-mentioned cell suspension was dispensed to the wells of a 96 well flat bottom ultra-low attachment surface microplate (manufactured by Corning Incorporated, #3474) at 90 μL per 1 well. The plate was stood in a CO2 incubator (37° C., 5% CO2) overnight. […] Successively, the plate was further cultured in a standing state in a CO2 incubator (37° C., 5% CO2) for 7 days. As a negative control, a medium composition containing 10 (v/v) % FBS alone in DMEM (manufactured by Wako Pure Chemical Industries, Ltd.) was prepared. […] A549 cells were also suspended in each of the negative control and comparison control medium compositions, the negative control was dispensed to a 96 well flat bottom attachment surface microplate (manufactured by Corning Incorporated, #3585) and the comparison control was dispensed to a 96 well flat bottom ultra-low attachment surface microplate (manufactured by Corning Incorporated, #3474). […] CellTiter-Glo Luminescent Cell Viability Assay (manufactured by Promega) (100 μL) was added to the low-molecular agar-containing culture medium and each cell culture medium of the negative control and comparison control, the mixture was stood for 10 min at room temperature, and the amount of luminescence was measured by a microplate reader (“FlexStation 3”, manufactured by Molecular Devices) and according to the protocol recommended by Promega. The amount of luminescence of the medium alone was subtracted, whereby the number of viable cells was measured.

For `CC(=O)O[C@H]1C(=O)[C@@]2(C)[C@H]([C@H](OC(=O)c3ccccc3)[C@]3(O)C[C@H](OC(=O)[C@H](O)[C@@H](NC(=O)c4ccccc4)c4ccccc4)C(C)=C1C3(C)C)[C@]1(OC(C)=O)CO[C@@H]1C[C@@H]2O` [paclitaxel, Paclitaxel], the IC50 ([1]; Homo sapiens, A549, high content analysis by cell image analysis, number of spheres of not less than 5 cells, low-molecular agar-containing medium, read-out: 50% inhibitory concentration) was 4.1 nM, the “average cell number per sphere” value ([1]; agent 0.001 μM) was 4.817 and the “average dead cell number in sphere” value ([1]; agent 0.001 μM) was 0.064. For the same molecule, the “average sphere number per 20 mm^2” value ([1]; agent 0.001 μM) was 297.7, the projected area ([1]; agent 0.001 μM) was 1271 μm^2 and the “average cell number per sphere” value ([1]; agent 0.01 μM) was 2.3. The “average dead cell number in sphere” value ([1]; agent 0.01 μM) was 0.336, the “average sphere number per 20 mm^2” value ([1]; agent 0.01 μM) was 187 and the projected area ([1]; agent 0.01 μM) was 797 μm^2. The “average cell number per sphere” value ([1]; agent 0.1 μM) was 1.662, the “average dead cell number in sphere” value ([1]; agent 0.1 μM) was 0.591 and the “average sphere number per 20 mm^2” value ([1]; agent 0.1 μM) was 133. For the same molecule, the projected area ([1]; agent 0.1 μM) was 647 μm^2, the IC50 ([2]; comparison control medium (0.015 (w/v)% deacylated gellan gum)) was 2.9 nM and the IC50 ([2]; negative control medium (DMEM, 10% FBS alone)) was 4.4 nM. For the same molecule, the “relative cell number (no anticancer agent = 1)” value ([2]; paclitaxel 0.001 μM, comparison control medium (0.015 (w/v)% deacylated gellan gum)) was 0.842, the “relative cell number (no anticancer agent = 1)” value ([2]; paclitaxel 0.001 μM, negative control medium (DMEM, 10% FBS alone)) was 1.004 and the “relative cell number (no anticancer agent = 1)” value ([2]; paclitaxel 0.01 μM, comparison control medium (0.015 (w/v)% deacylated gellan gum)) was 0.156. The “relative cell number (no anticancer agent = 1)” value ([2]; paclitaxel 0.01 μM, negative control medium (DMEM, 10% FBS alone)) was 0.249, the IC50 ([3]; comparison control (0.015 (w/v)% deacylated gellan gum medium)) was 4.5 nM and the IC50 ([3]; low-molecular agar-containing medium) was 4.9 nM. The IC50 ([3]; negative control (DMEM, 10% FBS, attachment surface plate)) was 4.1 nM, the “relative cell number (no anticancer agent = 100)” value ([3]; agent 0.001 μM, comparison control (0.015 (w/v)% deacylated gellan gum medium)) was 99.9 and the “relative cell number (no anticancer agent = 100)” value ([3]; agent 0.001 μM, low-molecular agar-containing medium) was 102.4. For the same molecule, the “relative cell number (no anticancer agent = 100)” value ([3]; agent 0.001 μM, negative control (DMEM, 10% FBS, attachment surface plate)) was 100.1, the “relative cell number (no anticancer agent = 100)” value ([3]; agent 0.01 μM, comparison control (0.015 (w/v)% deacylated gellan gum medium)) was 23.5 and the “relative cell number (no anticancer agent = 100)” value ([3]; agent 0.01 μM, low-molecular agar-containing medium) was 27. For the same molecule, the “relative cell number (no anticancer agent = 100)” value ([3]; agent 0.01 μM, negative control (DMEM, 10% FBS, attachment surface plate)) was 18.8, the “relative cell number (no anticancer agent = 100)” value ([3]; agent 0.1 μM, comparison control (0.015 (w/v)% deacylated gellan gum medium)) was 10.8 and the “relative cell number (no anticancer agent = 100)” value ([3]; agent 0.1 μM, low-molecular agar-containing medium) was 12.1. For the same molecule, the “relative cell number (no anticancer agent = 100)” value ([3]; agent 0.1 μM, negative control (DMEM, 10% FBS, attachment surface plate)) was 5.5.
